# Tests used:
# Test in all cases: Test F preemergence test
# [1] = system: guineagrass; format: in vivo, Panicum maximum; conditions: scale 0 to 100
# Method in brief: (§1)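 Test chemicals were formulated in a non-phytotoxic solvent mixture with surfactant and applied preemergence to planted seeds or postemergence to sugarcane plants. Plants were kept in a greenhouse for 14 to 21 days, then visually evaluated against controls.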
# [2] = system: naked crabgrass; format: in vivo, Digitaria nuda; conditions: scale 0 to 100
# Method in brief: as §1
# [3] = system: mustard; format: in vivo, Brassica nigra; conditions: scale 0 to 100
# Method in brief: as §1
# [4] = system: Virginia dayflower; format: in vivo, Commelina virginica; conditions: scale 0 to 100
# Excerpt: Seeds of plant species selected from bermudagrass (Cynodon dactylon), Surinam grass (Brachiaria decumbens), large crabgrass (Digitaria sanguinalis), green foxtail (Setaria viridis), goosegrass (Eleusine indica), johnsongrass (Sorghum halepense), kochia (Kochia scoparia), pitted morningglory (Ipomoea lacunosa), purple nutsedge (Cyperus rotundus), common ragweed (Ambrosia elation), mustard (Brassica nigra), guineagrass (Panicum maximum), […] (Paspalum dilatatum), barnyardgrass (Echinochloa crus-galli), southern sandbur (Cenchrus echinatus), common sowthistle (Sonchus oleraceous), prickly […] spinosa), Italian ryegrass (Lolium multiflorum), common purslane (Portulaca oleracea), broadleaf signalgrass (Brachiaria platyphylla), common groundsel (Senecio vulgaris), common chickweed (Stellaria media), Virginia dayflower (Commelina virginica), annual bluegrass (Poa annua), naked crabgrass (Digitaria nuda), […] cochinchinensis), quackgrass (Elytrigia repens), Canada horseweed (Conyza canadensis), field bindweed (Convolvulus arvensis), […] (Bidens bipinnata), common mallow (Malva sylvestris), Russian thistle (Salsola kali), and sugarcane (Saccharum officinarum) were planted and treated preemergence with test chemicals formulated in a non-phytotoxic solvent mixture which included a surfactant. At a different time, sugarcane was treated with postemergence applications of some of the test chemicals formulated in the same manner. Plants were approximately 3- to 4-leaf stage for the postemergence treatments. Treated plants and controls were maintained in a greenhouse for 14 to 21 days, after which time all species were compared to controls and visually evaluated. […] A dash (-) response means no test result.
# [5] = system: bermudagrass; format: in vivo, Cynodon dactylon; conditions: scale 0 to 100
# Method in brief: as §1
# [6] = system: kochia; format: in vivo, Kochia scoparia; conditions: scale 0 to 100
# Method in brief: as §1
# [7] = system: large crabgrass; format: in vivo, Digitaria sanguinalis; conditions: scale 0 to 100
# Method in brief: as §1
# [8] = system: itchgrass; format: in vivo, Rottboellia cochinchinensis; conditions: scale 0 to 100
# Method in brief: as §1
# [9] = system: Italian ryegrass; format: in vivo, Lolium multiflorum; conditions: scale 0 to 100
# Method in brief: as §1
# [10] = system: broadleaf signalgrass; format: in vivo, Brachiaria platyphylla; conditions: scale 0 to 100
# Method in brief: as §1
# [11] = system: common ragweed; format: in vivo, Ambrosia elation; conditions: scale 0 to 100
# Method in brief: as §1
# [12] = system: goosegrass; format: in vivo, Eleusine indica; conditions: scale 0 to 100
# Method in brief: as §1
# [13] = system: common groundsel; format: in vivo, Senecio vulgaris; conditions: scale 0 to 100
# Method in brief: as §1
# [14] = system: johnsongrass; format: in vivo, Sorghum halepense; conditions: scale 0 to 100
# Method in brief: as §1
# [15] = system: barnyardgrass; format: in vivo, Echinochloa crus-galli
# Method in brief: as §1
# [16] = system: quackgrass; format: in vivo, Elytrigia repens; conditions: scale 0 to 100
# Method in brief: as §1
# [17] = system: dallisgrass; format: in vivo, Paspalum dilatatum; conditions: scale 0 to 100
# Method in brief: as §1
# [18] = system: Surinam grass; format: in vivo, Brachiaria decumbens; conditions: scale 0 to 100; for Plant response rating, Surinam Grass: Preemergence
# Method in brief: as §1
# [19] = system: common purslane; format: in vivo, Portulaca oleracea; conditions: scale 0 to 100
# Method in brief: as §1
# [20] = system: prickly sida; format: in vivo, Sida spinosa; conditions: scale 0 to 100
# Method in brief: as §1
compound,measurement,setting,value
Cn1nc(C(F)(F)C(F)(F)F)c(C[S+]([O-])c2cccc[n+]2[O-])c1OCC(F)(F)F (stereo not drawn) [Compound 79],"Plant response rating, Guineagrass","[1]; 16 g ai/ha, preemergence",0
same,Guineagrass plant response rating,"[1]; 62 g ai/ha, Preemergence",100
same,Guineagrass plant response rating,"[1]; 125 g ai/ha, preemergence",100
same,"Plant response rating, Guineagrass","[1]; Preemergence, 31 g ai/ha",95
same,"Plant response rating, Crabgrass, Naked","[2]; 16 g ai/ha, preemergence",0
same,"Crabgrass, Naked plant response rating","[2]; 62 g ai/ha, Preemergence",100
same,"Crabgrass, Naked plant response rating","[2]; 125 g ai/ha, preemergence",100
same,"Plant response rating, Crabgrass, Naked","[2]; Preemergence, 31 g ai/ha",40
same,"Plant response rating, Black Mustard","[3]; 16 g ai/ha, preemergence",100
same,Black Mustard plant response rating,"[3]; 62 g ai/ha, Preemergence",100
same,Black Mustard plant response rating,"[3]; 125 g ai/ha, preemergence",100
same,"Plant response rating, Black Mustard","[3]; Preemergence, 31 g ai/ha",100
same,Dayflower plant response rating,"[4]; 62 g ai/ha, Preemergence",50
same,Dayflower plant response rating,"[4]; 125 g ai/ha, preemergence",100
same,"Plant response rating, Dayflower","[4]; Preemergence, 31 g ai/ha",20
same,"Plant response rating, Bermudagrass","[5]; 16 g ai/ha, preemergence",10
same,Bermudagrass plant response rating,"[5]; 62 g ai/ha, Preemergence",100
same,Bermudagrass plant response rating,"[5]; 125 g ai/ha, preemergence",100
same,"Plant response rating, Bermudagrass","[5]; Preemergence, 31 g ai/ha",65
same,"Plant response rating, Kochia","[6]; 16 g ai/ha, preemergence",50
same,Kochia plant response rating,"[6]; 62 g ai/ha, Preemergence",100
same,Kochia plant response rating,"[6]; 125 g ai/ha, preemergence",100
same,"Plant response rating, Kochia","[6]; Preemergence, 31 g ai/ha",100
same,"Plant response rating, Crabgrass, Large","[7]; 16 g ai/ha, preemergence",0
same,"Crabgrass, Large plant response rating","[7]; 62 g ai/ha, Preemergence",80
same,"Crabgrass, Large plant response rating","[7]; 125 g ai/ha, preemergence",100
same,"Plant response rating, Crabgrass, Large","[7]; Preemergence, 31 g ai/ha",20
same,"Plant response rating, Itchgrass","[8]; 16 g ai/ha, preemergence",0
same,Itchgrass plant response rating,"[8]; 62 g ai/ha, Preemergence",75
same,Itchgrass plant response rating,"[8]; 125 g ai/ha, preemergence",95
same,"Plant response rating, Itchgrass","[8]; Preemergence, 31 g ai/ha",75
same,"Plant response rating, Ryegrass, Italian","[9]; 16 g ai/ha, preemergence",0
same,"Ryegrass, Italian plant response rating","[9]; 125 g ai/ha, preemergence",100
same,"Plant response rating, Ryegrass, Italian","[9]; Preemergence, 62 g ai/ha",100
same,"Plant response rating, Ryegrass, Italian","[9]; Preemergence, 31 g ai/ha",65
same,"Plant response rating, Signalgrass","[10]; 16 g ai/ha, preemergence",0
same,Signalgrass plant response rating,"[10]; 125 g ai/ha, preemergence",100
same,"Plant response rating, Signalgrass","[10]; Preemergence, 62 g ai/ha",30
same,"Plant response rating, Signalgrass","[10]; Preemergence, 31 g ai/ha",0
same,"Plant response rating, Ragweed","[11]; 16 g ai/ha, preemergence",95
same,Ragweed plant response rating,"[11]; 125 g ai/ha, preemergence",100
same,"Plant response rating, Ragweed","[11]; Preemergence, 62 g ai/ha",100
same,"Plant response rating, Ragweed","[11]; Preemergence, 31 g ai/ha",100
same,"Plant response rating, Goosegrass","[12]; 16 g ai/ha, preemergence",20
same,Goosegrass plant response rating,"[12]; 62 g ai/ha, Preemergence",98
same,Goosegrass plant response rating,"[12]; 125 g ai/ha, preemergence",100
same,"Plant response rating, Goosegrass","[12]; Preemergence, 31 g ai/ha",75
same,"Plant response rating, Groundsel","[13]; 16 g ai/ha, preemergence",95
same,Groundsel plant response rating,"[13]; 62 g ai/ha, Preemergence",95
same,Groundsel plant response rating,"[13]; 125 g ai/ha, preemergence",100
same,"Plant response rating, Groundsel","[13]; Preemergence, 31 g ai/ha",95
same,"Plant response rating, Johnsongrass","[14]; 16 g ai/ha, preemergence",0
same,Johnsongrass plant response rating,"[14]; 62 g ai/ha, Preemergence",90
same,Johnsongrass plant response rating,"[14]; 125 g ai/ha, preemergence",100
same,"Plant response rating, Johnsongrass","[14]; Preemergence, 31 g ai/ha",50
same,"Plant response rating, Barnyardgrass","[15]; 16 g ai/ha, preemergence, scale 0 to 100 (0 no effect, 100 complete control)",20
same,Barnyardgrass plant response rating,"[15]; 62 g ai/ha, Preemergence, scale 0 to 100",100
same,Barnyardgrass plant response rating,"[15]; 125 g ai/ha, preemergence, scale 0 to 100",100
same,"Plant response rating, Barnyardgrass","[15]; Preemergence, 31 g ai/ha, scale 0 to 100",80
same,"Plant response rating, Quackgrass","[16]; 16 g ai/ha, preemergence",0
same,Quackgrass plant response rating,"[16]; 62 g ai/ha, Preemergence",80
same,Quackgrass plant response rating,"[16]; 125 g ai/ha, preemergence",95
same,"Plant response rating, Quackgrass","[16]; Preemergence, 31 g ai/ha",35
same,"Plant response rating, Dallisgrass","[17]; 16 g ai/ha, preemergence",0
same,Dallisgrass plant response rating,"[17]; 62 g ai/ha, Preemergence",90
same,Dallisgrass plant response rating,"[17]; 125 g ai/ha, preemergence",100
same,"Plant response rating, Dallisgrass","[17]; Preemergence, 31 g ai/ha",40
same,Surinam Grass plant response rating,"[18]; 125 g ai/ha, preemergence",100
same,"Plant response rating, Surinam Grass",[18]; 62 g ai/ha,100
same,"Plant response rating, Surinam Grass",[18]; 31 g ai/ha,30
same,"Plant response rating, Purslane","[19]; 16 g ai/ha, preemergence",30
same,Purslane plant response rating,"[19]; 62 g ai/ha, Preemergence",60
same,Purslane plant response rating,"[19]; 125 g ai/ha, preemergence",100
same,"Plant response rating, Purslane","[19]; Preemergence, 31 g ai/ha",40
same,"Plant response rating, Prickly Sida","[20]; 16 g ai/ha, preemergence",0
same,Prickly Sida plant response rating,"[20]; 62 g ai/ha, Preemergence",100
same,Prickly Sida plant response rating,"[20]; 125 g ai/ha, preemergence",100
same,"Plant response rating, Prickly Sida","[20]; Preemergence, 31 g ai/ha",20
